Laboratory results from US20200407717A1, “METHODS OF MODULATING ANTISENSE ACTIVITY” (Ionis Pharmaceuticals, Inc., priority 2018, published 2020).
e = 2'-O-(2-methoxyethyl) (MOE); d = 2'-deoxy (DNA)

Test system: Malat1 RNA
Assay: Antisense activity by RT-qPCR, Malat1, A431 cells
Assay type: cell-based
Method: A431 cells were grown at 10,000 cells per well and pre-treated with a variety of growth factors to determine if the addition of exogenous growth factors affects antisense activity or uptake of modified antisense oligonucleotides in a cell. The growth factors used were EGF, insulin growth factor (IGF), transforming growth factor (TGF), […] (VEGF), hepatocyte growth factor (HGF), platelet growth factor (PGF) and fibroblasts growth factor (FGF). To test antisense activity, cells were treated for 4 hours with a growth factor or vehicle alone, and then treated with compound no. 25690 (complementary to Drosha), compound no. 395254 (complementary to Malat1), or vehicle alone. RNA was isolated from the cells and Drosha or Malat1 RNA levels were measured by RT-qPCR. Human primer probe set 13816 (forward sequence […], designated herein as SEQ ID NO: 3; reverse sequence […], designated herein as SEQ ID NO: 4; probe sequence […], designated herein as SEQ ID NO: 5) was used to measure Drosha mRNA levels and primer probe set RTS2736 (forward sequence […], designated herein as SEQ ID NO: 6; reverse sequence […], designated herein as SEQ ID NO: 7; probe sequence TGCCACATCGCCACCCCGT, designated herein as SEQ ID NO: 8) was used to measure Malat1 RNA levels. Drosha and Malat1 RNA levels were normalized to total RNA content, as measured by RIBOGREEN®. Results are presented in the tables below as normalized RNA levels, relative to untreated control cells.
A431 cells were treated with EGF or TGF at 200 ng/mL in the presence or absence of 1 μM of the EGFR tyrosine kinase inhibitor PD174265. The cells were then treated with compound no. 25690 or compound no. 395254 as in Example 8. Total RNA was isolated and analyzed by RT-qPCR, as in Example 8.
Following siRNA treatment, cells were treated with compound no. 25690 or compound no. 395254 in the presence or absence of EGF. 16 hours after treatment with a PS-ASO with or without EGF, cells were harvested, and RNA levels were analyzed via RT-qPCR as in Example 8.

Sequence: GGCATATGCAGATAATGTTC (sugars from the 5' end e5 d10 e5, all phosphorothioate, methylation of C not given here) [compound 395254]
- Malat1 RNA (% Control) (125 nM, EGFR siRNA-1): 26.5 % Control
- Malat1 RNA (% Control) (125 nM, EGFR siRNA-2): 26.6 % Control
- Malat1 RNA (% Control) (125 nM, EGFR siRNA-2 + EGF): 55.2 % Control
- Malat1 RNA (% Control) (125 nM, EGFR siRNA-2, Table 27): 53.1 % Control
- Malat1 RNA (% Control) (125 nM, TGF): 74.4 % Control
- Malat1 RNA (% Control) (125 nM, TGF+PD174265): 47.0 % Control
- Malat1 RNA (% Control) (125 nM, TGF, Table 21): 33.1 % Control
- Malat1 RNA (% Control) (250 nM, Control): 74.0 % Control
- Malat1 RNA (% Control) (250 nM, Control Luciferase siRNA): 16.3 % Control
- Malat1 RNA (% Control) (250 nM, Control Luciferase siRNA, Table 27): 27.6 % Control
- Malat1 RNA (% Control) (250 nM, Control luciferase + EGF): 24.9 % Control
- Malat1 RNA (% Control) (250 nM, Control, Table 21): 37.6 % Control
- Malat1 RNA (% Control) (250 nM, EGF): 43.6 % Control
- Malat1 RNA (% Control) (250 nM, EGFR siRNA-1): 19.7 % Control
- Malat1 RNA (% Control) (250 nM, EGFR siRNA-2): 21.5 % Control
- Malat1 RNA (% Control) (250 nM, EGFR siRNA-2 + EGF): 34.0 % Control
- Malat1 RNA (% Control) (250 nM, EGFR siRNA-2, Table 27): 29.7 % Control
- Malat1 RNA (% Control) (250 nM, TGF): 29.4 % Control
- Malat1 RNA (% Control) (250 nM, TGF+PD174265): 34.9 % Control
- Malat1 RNA (% Control) (250 nM, TGF, Table 21): 19.7 % Control
- Malat1 RNA (% Control) (500 nM, Control): 44.5 % Control
- Malat1 RNA (% Control) (500 nM, Control Luciferase siRNA): 11.9 % Control
- Malat1 RNA (% Control) (500 nM, Control Luciferase siRNA, Table 27): 18.9 % Control
- Malat1 RNA (% Control) (500 nM, Control luciferase + EGF): 17.1 % Control
- Malat1 RNA (% Control) (500 nM, Control, Table 21): 28.9 % Control
- Malat1 RNA (% Control) (500 nM, EGF): 26.1 % Control
- Malat1 RNA (% Control) (500 nM, EGFR siRNA-1): 16.9 % Control
- Malat1 RNA (% Control) (500 nM, EGFR siRNA-2): 15.1 % Control
- Malat1 RNA (% Control) (500 nM, EGFR siRNA-2 + EGF): 24.6 % Control
- Malat1 RNA (% Control) (500 nM, EGFR siRNA-2, Table 27): 23.4 % Control
- Malat1 RNA (% Control) (500 nM, TGF): 27.9 % Control
- Malat1 RNA (% Control) (500 nM, TGF+PD174265): 27.1 % Control
- Malat1 RNA (% Control) (500 nM, TGF, Table 21): 13.5 % Control
- Malat1 RNA (% Control) (1000 nM, Control): 27.0 % Control
- Malat1 RNA (% Control) (1000 nM, Control Luciferase siRNA): 7.9 % Control
- Malat1 RNA (% Control) (1000 nM, Control Luciferase siRNA, Table 27): 18.2 % Control
- Malat1 RNA (% Control) (1000 nM, Control luciferase + EGF): 15.2 % Control
- Malat1 RNA (% Control) (1000 nM, Control, Table 21): 15.2 % Control
- Malat1 RNA (% Control) (1000 nM, EGF): 15.1 % Control
- Malat1 RNA (% Control) (1000 nM, EGFR siRNA-1): 11.3 % Control
- Malat1 RNA (% Control) (1000 nM, EGFR siRNA-2): 12.7 % Control
- Malat1 RNA (% Control) (1000 nM, EGFR siRNA-2 + EGF): 21.4 % Control
- Malat1 RNA (% Control) (1000 nM, EGFR siRNA-2, Table 27): 17.2 % Control
- Malat1 RNA (% Control) (1000 nM, TGF): 14.2 % Control
- Malat1 RNA (% Control) (1000 nM, TGF+PD174265): 21.2 % Control
- Malat1 RNA (% Control) (1000 nM, TGF, Table 21): 7.2 % Control
- Malat1 RNA (% Control) (2000 nM, Control): 24.1 % Control
- Malat1 RNA (% Control) (2000 nM, Control Luciferase siRNA): 7.6 % Control
- Malat1 RNA (% Control) (2000 nM, Control Luciferase siRNA, Table 27): 15.2 % Control
- Malat1 RNA (% Control) (2000 nM, Control luciferase + EGF): 10.2 % Control
- Malat1 RNA (% Control) (2000 nM, Control, Table 21): 11.2 % Control
- Malat1 RNA (% Control) (2000 nM, EGF): 9.9 % Control
- Malat1 RNA (% Control) (2000 nM, EGFR siRNA-1): 10.2 % Control
- Malat1 RNA (% Control) (2000 nM, EGFR siRNA-2): 11.0 % Control
- Malat1 RNA (% Control) (2000 nM, EGFR siRNA-2 + EGF): 18.3 % Control
- Malat1 RNA (% Control) (2000 nM, EGFR siRNA-2, Table 27): 15.2 % Control
- Malat1 RNA (% Control) (2000 nM, TGF): 9.5 % Control
- Malat1 RNA (% Control) (2000 nM, TGF+PD174265): 10.2 % Control
- Malat1 RNA (% Control) (2000 nM, TGF, Table 21): 5.2 % Control
- Malat1 RNA (% Control) (4000 nM, Control): 17.9 % Control
- Malat1 RNA (% Control) (4000 nM, Control Luciferase siRNA): 1.3 % Control
- Malat1 RNA (% Control) (4000 nM, Control Luciferase siRNA, Table 27): 11.2 % Control
- Malat1 RNA (% Control) (4000 nM, Control luciferase + EGF): 7.2 % Control
- Malat1 RNA (% Control) (4000 nM, Control, Table 21): 7.2 % Control
- Malat1 RNA (% Control) (4000 nM, EGF): 10.3 % Control
- Malat1 RNA (% Control) (4000 nM, EGFR siRNA-1): 7.8 % Control
- Malat1 RNA (% Control) (4000 nM, EGFR siRNA-2): 11.1 % Control
- Malat1 RNA (% Control) (4000 nM, EGFR siRNA-2 + EGF): 17.2 % Control
- Malat1 RNA (% Control) (4000 nM, EGFR siRNA-2, Table 27): 15.2 % Control
- Malat1 RNA (% Control) (4000 nM, TGF): 11.6 % Control
- Malat1 RNA (% Control) (4000 nM, TGF+PD174265): 7.2 % Control
- Malat1 RNA (% Control) (4000 nM, TGF, Table 21): 5.7 % Control
- IC50 (Control (no growth factor), Table 16): 36 ± 3.2 nM
- IC50 (Control Luciferase siRNA, Table 25): 46 ± 5.3 nM
- IC50 (Control Luciferase siRNA, Table 27): 49 ± 6.3 nM
- IC50 (Control luciferase + EGF, Table 27): 26 ± 2.4 nM
- IC50 (Control, Table 21): 50 ± 7 nM
- IC50 (EGF pre-treatment 4 hours, Table 16): 15 ± 3 nM
- IC50 (EGFR siRNA-1, Table 25): 86 ± 9.3 nM
- IC50 (EGFR siRNA-2 + EGF, Table 27): 87 ± 4.2 nM
- IC50 (EGFR siRNA-2, Table 25): 100 ± 9.7 nM
- IC50 (EGFR siRNA-2, Table 27): 89 ± 5.9 nM
- IC50 (TGF 200 ng/mL + 1 μM PD174265, Table 21): 56 ± 8.1 nM
- IC50 (TGF 200 ng/mL, Table 21): 21 ± 4 nM
- IC50 (TGF pre-treatment 4 hours, Table 16): 13 ± 2.1 nM
- half maximal inhibitory concentration, Malat1 (cells treated with IGF, FGF, HGF, VEGF or PGF relative to PS-ASO alone (data not shown)): unchanged
